{"source": "patent US20260327225A1", "about": "“HETEROCYCLIC COMPOUNDS AS TRIGGERING RECEPTOR EXPRESSED ON MYELOID CELLS 2 AGONISTS AND METHODS OF USE” (VIGIL NEUROSCIENCE, INC., priority 2023, published 2026)"}
{"molecular_target": "T1, human TREM2 (Homo sapiens, UniProt Q9NZC2)", "T1 construct": "expressed in transfected cells; host or cells: HEK293T-hTREM2 cells (HEK cell line expressing human TREM2 and DAP12)", "T1 sequence (Q9NZC2 19-230)": "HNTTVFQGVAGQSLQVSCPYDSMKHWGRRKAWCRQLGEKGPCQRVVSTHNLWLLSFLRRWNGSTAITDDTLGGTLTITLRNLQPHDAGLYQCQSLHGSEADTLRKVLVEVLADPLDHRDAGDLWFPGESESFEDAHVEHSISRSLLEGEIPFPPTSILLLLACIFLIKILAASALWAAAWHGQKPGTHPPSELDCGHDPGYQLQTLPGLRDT", "T1 sequence (O43914 22-113 partner)": "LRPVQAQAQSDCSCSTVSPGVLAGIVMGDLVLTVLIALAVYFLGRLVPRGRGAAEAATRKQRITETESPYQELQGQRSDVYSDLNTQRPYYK", "experiment": "TREM2 agonist potency by cellular phosphorylation of Syk (AlphaLisa) in HEK293T-hTREM2 cells expressing human TREM2 and DAP12", "assay_type": "cell-based", "conditions": "not given", "protocol": "(§1) In vitro Measurement of Triggering Receptor Expressed on Myeloid Cells 2 activity using cellular phosphorylation of Spleen Tyrosine Kinase (“Syk”) Assays\n(§2) Measurement of TREM2 agonist potency was done using a HEK cell line expressing human TREM2 and DAP12 (HEK293T-hTREM2 cells). Binding of small molecules to, and activation of, TREM2 increases the phosphorylation of Syk. The resultant levels of Syk phosphorylation are measured using a commercial AlphaLisa reagent kit. To perform the assay, HEK-hTREM2 cells were plated at 14,000 cells per well in a 384 well plate, in 25 μL of complete growth media and incubated at 37° C., 5% CO2 for 20-24 hours.\n(§3) Prior to the assay, test compounds were diluted in the 384 well plates in assay buffer and allowed to equilibrate for 30 minutes. Growth media was removed from cell plates by inversion on blotting paper, and 25 μL of test articles in assay buffer was added to cells. Cells were incubated for 45 minutes at room temperature. After 45 minutes, assay buffer was removed and 10 μL of lysis buffer was added. Plates were shaken for 20 minutes at 350 RPM at room temperature. After complete lysis, AlphaLisa reagents were added to the lysate, and fluourescence intensity was measured using a Perkin Elmer Envision plate reader. Intensities were used to generate a standard curve, and % activation was calculated. Curve fitting was performed using Prism v9 software, log(agonist) vs response—variable slope (four parameters), and EC50s were calculated from the curve fit.\n(§4) The results presented in Table B have been generated with the in vitro assay described above. This assay may be used to test any of the compounds described herein to assess and characterize a compound's ability to act as an agonist of TREM2.", "units": {"EC50": "µM"}}
{"smiles": "Cc1cc2c(-n3cccc3)nc(N3C[C@@H](C)O[C@@H](c4cnn(C5CC5)c4)C3)nc2nc1C", "note": "[Example 67, (2S,6R)-2-(1-cyclopropyl-pyrazol-4-yl)-4-(6,7-dimethyl-4-pyrrol-1-yl-pyrido[2,3-d]pyrimidin-2-yl)-6-methyl-morpholine]", "EC50": "0.1 to 0.5"}
{"smiles": "Cc1cc2c(-c3ccccc3)nc(N3C[C@@H](C)O[C@@H](c4cnn(C5CC5)c4)C3)nc2nc1C", "note": "[Example 68, (2S,6R)-2-(1-cyclopropylpyrazol-4-yl)-4-(6,7-dimethyl-4-phenylpyrido[2,3-d]pyrimidin-2-yl)-6-methyl-morpholine]", "EC50": "< 0.1"}
{"molecular_target": "T1, human TREM2", "experiment": "TREM2 agonist potency by cellular phosphorylation of Syk (AlphaLisa) in HEK293T-hTREM2 cells expressing human TREM2 and DAP12", "assay_type": "cell-based", "conditions": "HEK293 cells expressing hTREM2 and DAP12; 45 minutes at room temperature; Syk phosphorylation, AlphaLisa; read-out: hTREM2 EC50", "protocol": "as §1, §2, §3, §4", "units": {"EC50": "µM"}}
{"smiles": "Cc1cc([C@H]2CN(c3nc(C4CCCCC4)c4cc(C#N)c(C)nc4n3)CCO2)cnn1", "note": "[Example 46, 4-cyclohexyl-7-methyl-2-[2-(6-methyl-pyridazin-4-yl)morpholin-4-yl]-pyrido[2,3-d]pyrimidine-6-carbonitrile]", "EC50": "< 0.1"}
{"smiles": "Cc1cc2c(C3CCCC3)nc(N3C[C@@H](C)O[C@@H](c4cnn(C5CC5)c4)C3)nc2nc1C", "note": "[Example 65, (2S,6R)-4-(4-cyclopentyl-6,7-dimethylpyrido[2,3-d]pyrimidin-2-yl)-2-(1-cyclopropylpyrazol-4-yl)-6-methylmorpholine]", "EC50": "< 0.1"}
{"smiles": "Cc1nc2nc(N3C[C@@H](C)O[C@@H](c4cnn(C(F)F)c4)C3)nc(C34CC(C(F)(F)F)(C3)C4)c2cc1C#N", "note": "[Example 66, 2-[(2S,6R)-2-[1-(difluoromethyl)pyrazol-4-yl]-6-methyl-morpholin-4-yl]-7-methyl-4-[3-(trifluoromethyl)-1-bicyclo[1.1.1]pentanyl]pyrido[2,3-d]pyrimidine-6-carbonitrile]", "EC50": "< 0.1"}
{"smiles": "Cc1cc2c(-c3cccs3)nc(N3C[C@@H](C)O[C@@H](c4cnn(C5CC5)c4)C3)nc2nc1C", "note": "[Example 69, (2S,6R)-2-(1-cyclopropyl-pyrazol-4-yl)-4-[6,7-dimethyl-4-(2-thienyl)pyrido-[2,3-d]pyrimidin-2-yl]-6-methyl-morpholine]", "EC50": "0.1 to 0.5"}
{"smiles": "Cc1nc2nc(N3C[C@@H](C)O[C@@H](c4cnn(CC(F)F)c4)C3)nc(C34CC(C(F)(F)F)(C3)C4)c2cc1C#N", "note": "[Example 70, 2-((2S,6R)-2-(1-(2,2-difluoroethyl)-1H-pyrazol-4-yl)-6-methyl-morpholino)-7-methyl-4-(3-(trifluoromethyl)bicyclo[1.1.1]pentan-1-yl)pyrido[2,3-d]pyrimidine-6-carbonitrile]", "EC50": "< 0.1"}
{"smiles": "COCn1cc([C@H]2CN(c3nc(C45CC(C(F)(F)F)(C4)C5)c4cc(C#N)c(C)nc4n3)C[C@@H](C)O2)cn1", "note": "[Example 71]", "EC50": "< 0.1"}
{"smiles": "Cc1nc2nc(N3C[C@@H](C)O[C@@H](c4cnn(C5CC5)c4)C3)nc(C3CCCC3)c2cc1C#N", "note": "[Example 72, 4-cyclopentyl-2-[(2S,6R)-2-(1-cyclopropyl-pyrazol-4-yl)-6-methyl-morpholin-4-yl]-7-methyl-pyrido[2,3-d]pyrimidine-6-carbonitrile]", "EC50": "< 0.1"}
{"smiles": "Cc1nc2nc(N3C[C@@H](C)O[C@@H](c4cnn(C5CC5)c4)C3)nc(C34CC(C(F)F)(C3)C4)c2cc1C#N", "note": "[Example 73, 2-((2S,6R)-2-(1-cyclopropyl-1H-pyrazol-4-yl)-6-methylmorpholino)-4-(3-(difluoromethyl)bicyclo[1.1.1]pentan-1-yl)-7-methylpyrido[2,3-d]pyrimidine-6-carbonitrile]", "EC50": "< 0.1"}
{"smiles": "Cc1nc2nc(N3C[C@@H](C)O[C@@H](c4cnn(C5CC5)c4)C3)nc(C34CC(C(F)(F)F)(C3)C4)c2cc1C(F)(F)F", "note": "[Example 74, (2S,6R)-2-(1-cyclopropyl-1H-pyrazol-4-yl)-6-methyl-4-(7-methyl-6-(trifluoromethyl)-4-(3-(trifluoromethyl)-bicyclo[1.1.1]pentan-1-yl)pyrido[2,3-d]pyrimidin-2-yl)morpholine]", "EC50": "< 0.1"}
{"smiles": "Cc1nc2nc(N3C[C@@H](C)O[C@@H](c4cnn(C5CC5)c4)C3)nc(C34CC(C(F)(F)F)(C3)C4)c2nc1C1COC1", "note": "[Example 84, (2S,6R)-2-(1-cyclopropyl-pyrazol-4-yl)-6-methyl-4-[7-methyl-6-(oxetan-3-yl)-4-[3-(trifluoromethyl)-1-bicyclo[1.1.1]pentanyl]-pteridin-2-yl]morpholine]", "EC50": "< 0.1"}
{"smiles": "Cc1nc2nc(N3C[C@@H](C)O[C@@H](c4cnn(C5CC5)c4)C3)nc(C34CC(C(F)(F)F)(C3)C4)c2nc1C1CN(C(=O)OC(C)(C)C)C1", "note": "[Example 86, tert-butyl 3-[2-[(2S,6R)-2-(1-cyclopropylpyrazol-4-yl)-6-methyl-morpholin-4-yl]-7-methyl-4-[3-(trifluoromethyl)-1-bicyclo[1.1.1]pentanyl]pteridin-6-yl]azetidine-1-carboxylate]", "EC50": "> 0.5"}
{"smiles": "Cc1nc2nc(N3C[C@@H](C)O[C@@H](c4cnn(C5CC5)c4)C3)nc(C34CC(C(F)(F)F)(C3)C4)c2nc1C1CN(C)C1", "note": "[Example 87, (2S,6R)-2-(1-cyclopropylpyrazol-4-yl)-6-methyl-4-[7-methyl-6-(1-methylazetidin-3-yl)-4-[3-(trifluoromethyl)-1-bicyclo[1.1.1]pentanyl]pteridin-2-yl]morpholine]", "EC50": "0.1 to 0.5"}
{"smiles": "Cc1nc2nc(N3C[C@@H](C)O[C@@H](c4cnn(C5CC5)c4)C3)nc(-c3ccc(C#N)cc3F)c2nc1C", "note": "[Example 91, 4-[2-[(2S,6R)-2-(1-cyclopropylpyrazol-4-yl)-6-methyl-morpholin-4-yl]-6,7-dimethylpteridin-4-yl]-3-fluoro-benzonitrile]", "EC50": "< 0.1"}
{"smiles": "Cc1nc2nc(C3CCOC(c4ccn5nccc5c4)C3)nc(-c3ccc(F)cc3F)c2nc1C", "note": "(stereo not drawn) [Example 93, 4-(2,4-difluorophenyl)-6,7-dimethyl-2-(2-pyrazolo[1,5-a]pyridin-5-yltetrahydropyran-4-yl)pteridine]", "EC50": "< 0.1"}
{"smiles": "Cc1nc2nc(C3CCOC(c4ccc5nccn5c4)C3)nc(-c3ccc(F)cc3F)c2nc1C", "note": "(stereo not drawn) [Example 94, 4-(2,4-difluorophenyl)-2-(2-imidazo[1,2-a]pyridin-6-yltetrahydropyran-4-yl)-6,7-dimethyl-pteridine]", "EC50": "< 0.1"}
{"smiles": "Cc1nc2nc(C3CCOC(c4ccc5ncnn5c4)C3)nc(-c3ccc(F)cc3F)c2nc1C", "note": "(stereo not drawn) [Example 95]", "EC50": "< 0.1"}
{"smiles": "Cc1nc2nc(N3C[C@@H](C)O[C@@H](c4cnn(C5CC5)c4)C3)nc(-c3ccncc3F)c2nc1C", "note": "[Example 96, (2S,6R)-2-(1-cyclopropylpyrazol-4-yl)-4-[4-(3-fluoro-4-pyridyl)-6,7-dimethylpteridin-2-yl]-6-methyl-morpholine]", "EC50": "0.1 to 0.5"}
{"smiles": "Cc1nc2nc(C3CCOC(c4ccc5ncn(C)c5c4)C3)nc(-c3ccc(F)cc3F)c2nc1C", "note": "(stereo not drawn) [Example 98, 4-(2,4-difluorophenyl)-6,7-dimethyl-2-[2-(3-methylbenzimidazol-5-yl)tetrahydropyran-4-yl]pteridine]", "EC50": "< 0.1"}
{"smiles": "Cc1nc2nc(C3CCOC(c4ccc5nnc(C)n5c4)C3)nc(-c3ccc(F)cc3F)c2nc1C", "note": "(stereo not drawn) [Example 99, 4-(2,4-difluorophenyl)-6,7-dimethyl-2-[2-(3-methyl[1,2,4]-triazolo[4,3-a]pyridin-6-yl)tetrahydropyran-4-yl]pteridine]", "EC50": "< 0.1"}
{"smiles": "Cc1nc2nc(N3C[C@@H](C)O[C@@H](c4cnn(C5CC5)c4)C3)nc(C34CC(C3)C4)c2nc1C", "note": "[Example 100, (2S,6R)-4-[4-(1-bicyclo[1.1.1]pentanyl)-6,7-dimethyl-pteridin-2-yl]-2-(1-cyclopropylpyrazol-4-yl)-6-methyl-morpholine]", "EC50": "< 0.1"}
{"smiles": "Cc1nc2nc(N3C[C@@H](C)O[C@@H](c4cnn(C5CC5)c4)C3)nc(C34CC(C#N)(C3)C4)c2nc1C", "note": "[Example 102, 3-[2-[(2S,6R)-2-(1-cyclopropylpyrazol-4-yl)-6-methyl-morpholin-4-yl]-6,7-dimethyl-pteridin-4-yl]bicyclo[1.1.1]pentane-1-carbonitrile]", "EC50": "< 0.1"}
{"smiles": "Cc1nc2nc(N3C[C@@H](C)O[C@@H](c4cnn(C5CC5)c4)C3)nc(-c3ccc(=O)n(C)c3)c2nc1C", "note": "[Example 104, 5-[2-[(2S,6R)-2-(1-cyclopropylpyrazol-4-yl)-6-methyl-morpholin-4-yl]-6,7-dimethyl-pteridin-4-yl]-1-methyl-pyridin-2-one]", "EC50": "> 0.5"}
{"smiles": "Cc1nc2nc([C@@H]3CCO[C@H](c4cn(C)c(=O)s4)C3)nc(C34CC(C(F)(F)F)(C3)C4)c2nc1C", "note": "[Example 107, 5-[(2S,4R)-4-[6,7-dimethyl-4-[3-(trifluoromethyl)-1-bicyclo[1.1.1]pentanyl]pteridin-2-yl]tetrahydropyran-2-yl]-3-methyl-thiazol-2-one]", "EC50": "< 0.1"}
{"smiles": "Cc1nc2nc([C@H]3CCO[C@@H](c4cn(C)c(=O)s4)C3)nc(C34CC(C(F)(F)F)(C3)C4)c2nc1C", "note": "[Example 108, 5-[(2R,4S)-4-[6,7-dimethyl-4-[3-(trifluoromethyl)-1-bicyclo[1.1.1]pentanyl]pteridin-2-yl]tetrahydropyran-2-yl]-3-methyl-thiazol-2-one]", "EC50": "< 0.1"}
{"smiles": "Cc1nc2nc(C3CCOC(c4ccn5nccc5c4)C3)nc(C34CC(C(F)(F)F)(C3)C4)c2nc1C", "note": "(stereo not drawn) [Example 109, 6,7-dimethyl-2-(2-pyrazolo[1,5-a]pyridin-5-yltetrahydropyran-4-yl)-4-[3-(trifluoromethyl)-1-bicyclo[1.1.1]pentanyl]pteridine]", "EC50": "< 0.1"}
